In patent US20260167622A1, “PAN-KRAS DEGRADING AGENT, AND PREPARATION METHOD THEREFOR AND USE THEREOF” (LEADINGTAC PHARMACEUTICAL (SHAOXING) CO., LTD., priority 2022, published 2026):

Legend:
Human KRAS G12C = biological target: T1, Human KRAS G12C (Homo sapiens, UniProt P01116, G12C); experiment: KRAS G12C:GTP binding assay (HTRF kit); settings: 25° C., 1 h
T1 construct: purchased PerkinElmer
Protocol: Test Example 4: KRAS G12C Binding Assay
In this method, the inhibitory effects of the compounds on the binding of KRAS G12C to GTP were assayed by a homogeneous time-resolved fluorescence (HTRF) technique using a KRAS G12C:GTP binding assay kit (PerkinElmer).
The experimental procedures were as follows (refer to the kit instructions for detailed test methods): the compounds of the present disclosure were each firstly dissolved in DMSO at a stock concentration of 20 mM. The stock solutions of the compounds were diluted in an equal gradient with DMSO, and then were subjected to second dilution with a buffer in the kit, so that the final concentrations of the test compounds in the reaction system were in a range of 0.02-5000 nM, and the final concentration of DMSO was 0.5%. […] After the incubation was completed, the fluorescence intensity of each well was measured at the excitation wavelength of 337 nm and the emission wavelengths of 620 nm and 665 nm with an EnVision microplate reader (PerkinElmer) in the HTRF mode, and Ratio values were calculated using the formula: Ratio=(665 nm/620 nm)×[…]. The inhibition rates of the compounds at each concentration were calculated by comparing the fluorescence intensity ratio with that of the control group. […]

[1] = biological target: T2, KRAS G12V protein in SW620 cells (Homo sapiens, UniProt P01116, G12V); experiment: KRAS degradation assay (Western Blot) in SW620 cells; format: cell-based; settings: for DC50: 24 h; for Dmax: SW-620, 24 h
T2 construct: endogenous in cells; host or cells: SW620
In short: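 Compounds were added at final concentrations of 0.03–3000 nM (0.25% DMSO) to overnight-plated cells and left for 24 h. Lysates, equalised by BCA, were immunoblotted for KRAS and β-actin, and DC50 and Dmax were derived from normalised band intensities relative to control.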

[2] = biological target: T3, KRAS WT (expanded) protein in MKN1 cells (Homo sapiens, UniProt P01116); experiment: KRAS degradation assay (Western Blot) in MKN1 cells; format: cell-based; settings: for DC50: 24 h; for Dmax: MKN-1, 24 h
T3 construct: endogenous in cells; host or cells: MKN1 (MKN-1)
Excerpt: (§1) Test Example 5: KRAS G12C, KRAS G12D, KRAS G12V, KRAS G13D, and KRAS WT (Expanded) Degradation Assays
(§2) The degradation effect of the compounds on KRAS was investigated on KRAS G12C mutant human non-small cell lung cancer cell NCI-H358, KRAS G12D mutant human metastatic pancreatic cancer cell AsPc-1, KRAS G12D mutant human lung cancer cell A427, KRAS G12V mutant human colorectal cancer cell SW620, KRAS G12V mutant human lung cancer cell SW900, KRAS G13D mutant human colorectal cancer epithelial cell DLD-1, and KRAS WT human gastric cancer cell MKN-1. The specific procedures were as follows: 0.95 mL of cells were seeded into each well of a 24-well cell culture plate to achieve a cell density of 5×10^5 cells/well; and the cell plate was incubated in an incubator at 37° C. with 5% CO2 overnight. Then 50 μL of the compound solution after dilution was added to each of the wells with the corresponding cells, so that the final concentration of the compound was in a range of 0.03-3000 nM. The final concentration of DMSO was 0.25%. After the compounds were added, the cell plate was incubated in an incubator at 37° C. with 5% CO2 for 24 h. The culture medium in the 24-well cell culture plate was then removed, and the plate was washed twice with 1×PBS (KeyGEN). 120 μL of RIPA (strong) lysis buffer (Beyotime) (supplemented with 1 mM phenylmethylsulfonyl fluoride, a protease inhibitor mixture (Beyotime), and a protease phosphatase inhibitor mixture (Beyotime)) was added to lyse adherent SW900 cells at the bottom of the cell culture plate. After the plate was left to stand on ice for 30 min, the protein lysate in each well was transferred to a 1.5 mL centrifuge tube and centrifuged at 15000 g for 20 min at 4° C. The cell lysate supernatants after centrifugation were cryopreserved in a refrigerator at −80° C. for later use.
(§3) After the samples of the cell lysate supernatants that had been prepared were thawed from the refrigerator at −80° C., the total protein concentrations of the cell lysates were determined using a BCA protein quantification kit (Tiangen). The total protein concentrations of the samples were then adjusted to 0.5 μg/μL with PBS and 5×SDS-PAGE protein loading buffer (Beyotime), and the samples were incubated in a water bath at 100° C. for 15 min. The samples were then incubated in an ice bath for 5 min and centrifuged at 14000 g for 1 min at 4° C., and the supernatants were mixed well as loading samples for the Western Blot assay. The samples were loaded into wells of a 10% precast gel (KeyGEN) with a loading volume of 10 μL (total protein: 5 μg), a sufficient Tris-MOPS-SDS running buffer (Adamas) was added, and then electrophoresis was performed at a constant voltage of 120 V for 55 min. After the electrophoresis, the proteins on the gel were transferred to PVDF membranes at a constant current of 250 mA for 55 min. After the membrane transfer, the PVDF membranes were incubated in 1× Quick Block blocking buffer (Beyotime)at room temperature for 30 min. After the blocking, the PVDF membranes were separately incubated at 4° C. overnight with the KRAS antibody (Abcam) diluted in a ratio of 1:1000 and the β-actin antibody (Abcam) diluted in a ratio of 1:2000 in 5% BSA as the diluent, and then washed with 1×TBST buffer (2.4 g of Tris, 8.8 g of NaCl, 1.5 mL of Tween 20, with pH adjusted to 7.4, with the volume brought to 1 L) 3 times for 10 min/time. The membranes were incubated with a secondary antibody (Abcam) diluted in 5% BSA at room temperature for 2 h, and then washed with 1×TBST buffer 3 times for 10 min/time. Finally, the membranes were incubated with Clarity Western ECL Substrate (BIO-RAD) for 5 min for luminescence and color development, and a ChemiScope 6200 Touch chemiluminescence imaging system (Clinx) was used for color development and protein mapping. Gray value analysis of the protein maps was performed using the chemiluminescence analysis software (Clinx). […]

[3] = biological target: T4, KRAS G12C protein in NCI-H358 cells (Homo sapiens, UniProt P01116, G12C); experiment: KRAS degradation assay (Western Blot) in NCI-H358 cells; format: cell-based; settings: 24 h
T4 construct: endogenous in cells; host or cells: NCI-H358
Excerpt: as §1, §2, §3

[4] = biological target: T5, KRAS G13D protein in DLD-1 cells (Homo sapiens, UniProt P01116, G13D); experiment: KRAS degradation assay (Western Blot) in DLD-1 cells; format: cell-based; settings: 24 h
T5 construct: endogenous in cells; host or cells: DLD-1
In short: (§4)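 Degradation of KRAS measured by Western blot after 24 h exposure to compound (0.03–3000 nM final). Values are DC50 and Dmax.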

[5] = biological target: T6, KRAS G12D protein in AsPc-1 cells (Homo sapiens, UniProt P01116, G12D); experiment: KRAS degradation assay (Western Blot) in AsPc-1 cells; format: cell-based; settings: for DC50: 24 h; for Dmax: ASPC1, 24 h
T6 construct: endogenous in cells; host or cells: AsPc-1
In short: as §4

T4 sequence (P01116 1-188 isoform P01116-2 G12C): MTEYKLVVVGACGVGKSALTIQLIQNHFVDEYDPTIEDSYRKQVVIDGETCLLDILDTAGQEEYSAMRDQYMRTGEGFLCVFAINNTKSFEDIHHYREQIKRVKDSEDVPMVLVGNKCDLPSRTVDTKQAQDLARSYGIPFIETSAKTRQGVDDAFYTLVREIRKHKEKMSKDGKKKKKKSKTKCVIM
T6 sequence (P01116 1-188 isoform P01116-2 G12D): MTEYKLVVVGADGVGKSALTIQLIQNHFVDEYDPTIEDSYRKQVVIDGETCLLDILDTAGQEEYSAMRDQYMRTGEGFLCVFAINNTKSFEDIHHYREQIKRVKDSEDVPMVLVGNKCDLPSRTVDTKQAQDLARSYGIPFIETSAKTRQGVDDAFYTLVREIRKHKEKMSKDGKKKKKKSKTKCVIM
T5 sequence (P01116 1-188 isoform P01116-2 G13D): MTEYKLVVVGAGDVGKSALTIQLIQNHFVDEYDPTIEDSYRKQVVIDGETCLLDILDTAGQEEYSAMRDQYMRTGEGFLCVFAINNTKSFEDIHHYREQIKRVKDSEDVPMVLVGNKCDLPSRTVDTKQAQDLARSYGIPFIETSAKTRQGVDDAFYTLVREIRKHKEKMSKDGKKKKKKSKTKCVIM
T2 sequence (P01116 1-188 isoform P01116-2 G12V): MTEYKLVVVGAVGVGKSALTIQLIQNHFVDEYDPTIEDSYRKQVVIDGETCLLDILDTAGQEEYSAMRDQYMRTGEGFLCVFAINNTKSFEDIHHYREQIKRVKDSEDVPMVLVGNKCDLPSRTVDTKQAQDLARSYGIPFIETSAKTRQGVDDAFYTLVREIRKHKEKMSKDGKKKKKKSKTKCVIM
T3 sequence (P01116 1-188 isoform P01116-2): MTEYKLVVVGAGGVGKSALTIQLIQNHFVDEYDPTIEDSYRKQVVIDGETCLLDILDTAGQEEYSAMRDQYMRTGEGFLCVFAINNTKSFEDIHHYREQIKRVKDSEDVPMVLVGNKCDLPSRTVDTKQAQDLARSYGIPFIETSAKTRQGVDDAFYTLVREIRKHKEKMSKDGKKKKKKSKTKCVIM
T1 sequence (P01116 1-188 isoform P01116-2 G12C): as the sequence (P01116 1-188 isoform P01116-2 G12C) above

C#Cc1c(F)ccc2cc(O)cc(-c3ncc4c(N5CCC[C@@](C)(O)C5)nc(OCC5(CN6CCN(CC7CCC8(CC7)CCN(C(=O)c7ccc(Cl)c(N9CCC(=O)NC9=O)c7)CC8)CC6)CC5)nc4c3F)c12 [Example 1, (R)-1-(2-chloro-5-(9-((4-((1-(((7-(8-ethynyl-7-fluoro-3-hydroxynaphthalen-1-yl)-8-fluoro-4-(3-hydroxy-3-methylpiperidin-1-yl)pyrido[4,3-d]pyrimidin-2-yl)oxy)methyl)cyclopropyl)methyl)piperazin-1-yl)methyl)-3-azaspiro[5.5]undecane-3-carbonyl)phenyl)dihydropyrimidine-2,4(1H,3H)-dione]
IC50 (Human KRAS G12C): 500 to 1000 nM
DC50 [1]: 2.67 nM
Dmax [1]: 100%
DC50 [2]: ≤ 50 nM
Dmax [2]: 80 to 100%
DC50 [3]: ≤ 50 nM
Dmax [3]: 80 to 100%
DC50 [4]: ≤ 50 nM
Dmax [4]: 80 to 100%
DC50 [5]: ≤ 50 nM
Dmax [5]: 80 to 100%

CCc1cccc2cc(O)cc(-c3ncc4c(N5CCC[C@@](C)(O)C5)nc(OCC5(CN6CCN(CC7CCC8(CC7)CCN(C(=O)c7ccc(Cl)c(N9CCC(=O)NC9=O)c7)CC8)CC6)CC5)nc4c3F)c12 [Example 3, (R)-1-(2-chloro-5-(9-((4-((1-(((7-(8-ethyl-3-hydroxynaphthalen-1-yl)-8-fluoro-4-(3-hydroxy-3-methylpiperidin-1-yl)pyrido[4,3-d]pyrimidin-2-yl)oxy)methyl)cyclopropyl)methyl)piperazin-1-yl)methyl)-3-azaspiro[5.5]undecane-3-carbonyl)phenyl)dihydropyrimidine-2,4(1H,3H)-dione]
IC50 (Human KRAS G12C): ≤ 500 nM
DC50 [2]: ≤ 50 nM
Dmax [2]: 80 to 100%
DC50 [3]: ≤ 50 nM
Dmax [3]: 80 to 100%
DC50 [4]: ≤ 50 nM
Dmax [4]: 80 to 100%
DC50 [5]: ≤ 50 nM
Dmax [5]: 80 to 100%

C#Cc1c(F)ccc2cc(O)cc(-c3ncc4c(N5CCC[C@@](C)(O)C5)nc(OCC5(CN6CCN(CC7CCC8(CC7)CCN(C(=O)c7ccc(C)c(N9CCC(=O)NC9=O)c7)CC8)CC6)CC5)nc4c3F)c12 [Example 6, (R)-1-(5-(9-((4-((1-(((7-(8-ethynyl-7-fluoro-3-hydroxynaphthalen-1-yl)-8-fluoro-4-(3-hydroxy-3-methylpiperidin-1-yl)pyrido[4,3-d]pyrimidin-2-yl)oxy)methyl)cyclopropyl)methyl)piperazin-1-yl)methyl)-3-azaspiro[5.5]undecane-3-carbonyl)-2-methylphenyl)dihydropyrimidine-2,4(1H,3H)-dione]
DC50 [1]: 3.56 nM
Dmax [1]: 99.1%
DC50 [2]: ≤ 50 nM
Dmax [2]: 80 to 100%
DC50 [3]: ≤ 50 nM
Dmax [3]: 80 to 100%
DC50 [4]: ≤ 50 nM
Dmax [4]: 80 to 100%
DC50 [5]: ≤ 50 nM
Dmax [5]: 80 to 100%

C#Cc1c(F)ccc2cc(O)cc(-c3ncc4c(N5CCC[C@@](C)(O)C5)nc(OCC5(CN6CCN(CC7CCC8(CC7)CCN(C(=O)c7ccc(OC)c(N9CCC(=O)NC9=O)c7)CC8)CC6)CC5)nc4c3F)c12 [Example 7, (R)-1-(5-(9-((4-((1-(((7-(8-ethynyl-7-fluoro-3-hydroxynaphthalen-1-yl)-8-fluoro-4-(3-hydroxy-3-methylpiperidin-1-yl)pyrido[4,3-d]pyrimidin-2-yl)oxy)methyl)cyclopropyl)methyl)piperazin-1-yl)methyl)-3-azaspiro[5.5]undecane-3-carbonyl)-2-methoxyphenyl)dihydropyrimidine-2,4(1H,3H)-dione]
DC50 [1]: 0.62 nM
Dmax [1]: 100%
DC50 [2]: ≤ 50 nM
Dmax [2]: 80 to 100%
DC50 [3]: ≤ 50 nM
Dmax [3]: 80 to 100%
DC50 [4]: ≤ 50 nM
Dmax [4]: 80 to 100%
DC50 [5]: ≤ 50 nM
Dmax [5]: 80 to 100%
